Source: patent US20130089591A1, “Compositions” (Givaudan SA, priority 2010, published 2013)

Assays:
[1] = Aggregation of polyamide capsules (Example 2 method); assay type: physicochemical; parameters: key to Encapsulation, No precursor (scale of aggregation) / Encapsulation, With precursor (scale of aggregation): ∘: no aggregation of the capsules; +: aggregation of few capsules together only visible under microscopy; ++: aggregates of mm size; +++: important aggregation; ++++: aggregation is such that a cake is obtained; details: for Encapsulation, No precursor (scale of aggregation): free aldehyde as phase B at 5% in phase A of Table 1; for Encapsulation, With precursor (scale of aggregation): precursor of the aldehyde (Method 1.1) as phase B at 5% in phase A of Table 1
Experimental: An oil phase was prepared by dissolving isophtahaloyl dichloride (Fluka) in oil (oil composition specified in the examples below) at a level of 10%
An aqueous solution (Solution S1) was prepared by dissolving a polyvinyl alcohol Mowiol 4-88 (Kuru ray) in water at a level of 1%.
An aqueous solution (Solution S2) was prepared when triethylentetraamine (Hunstman) was diluted in water at a level of 3%.
100 g of the oil phase was mixed with 450 g of solution S1 to form an oil-in-water emulsion in a 1 L reactor equipped with a MIG stirrer operating at 1000 rpm. After 5 minutes of mixing, 450 g of solution S2 was slowly added. The resultant slurry of polyamide capsules was kept under stirring for 2 H.
Two capsule populations were formed. A first encapsulating IPM (isopropyl myristate) and a second containing IPM+5% of ethyl vaniline. The capsules were made according to the method of Example 2.
The methodology of Example 2 was applied to encapsulate different perfume oils described as phase A (non aldehyde raw materials) and phase B (aldehyde raw materials).
The phase B was added at 5% to the phase A prior to encapsulation. Different compositions of phase B have been used corresponding each time to a single aldehyde perfume molecule or to its precursor formed according to the methodology of Method 1.1, above.
According to the condition of the slurry a scale of aggregation has been defined as follows: […]
(§1) ∘ no aggregation of the capsules + aggregation of few capsules together only visible under microscopy ++ aggregates of mm size +++ important aggregation ++++ aggregation is such that a cake is obtained

[2] = Aggregation of polyurea capsules, Method 5.5; assay type: physicochemical; parameters: key: ∘: no aggregation of the capsules; +: aggregation of few capsules together only visible under microscopy; ++: aggregates of mm size; +++: important aggregation; ++++: aggregation is such that a cake is obtained; details: polyurea Method 5.5, phase A of Table 1; for Encapsulation, No precursor (scale of aggregation): free aldehyde as phase B; for Encapsulation, With precursor (scale of aggregation): precursor (Method 1.1) as phase B
Experimental: An oil phase was prepared when Desmodur W and Desmodur N3300 (Bayer) were added in perfume oil at a level of 2.2% and 13% respectively.
An aqueous phase (Solution S1) was prepared when Gantrez AN119 (ISP) was added to water, at a level of 1.6%. The solution was heated at 70° C. for 10 min to disperse the polymer.
An aqueous phase (Solution S2) was prepared when Ethylene diamine (Merck) was added to water, at a level of 7.5%.
30 g of the oil phase was mixed with 80 g of solution S1, to form an oil-in-water emulsion, in a 250 mL vessel equipped with a propeller operating at 1000 rpm.
After 10 min of stirring, 20 g of solution S2 was added.
The slurry was stirred for 30 min at room temperature, then heated to 60° C. and stirred for 3 H at 60° C. before cooling.
The Method 5.5 of Example 5 was applied to encapsulate different perfume oils described as phase A (non aldehyde raw materials) and phase B (aldehyde raw materials).
The composition of Phase A was described in Table 1 above. Phase B is an aldehyde perfume molecule used as such or as its precursor form prepared according to Method 1.1.
According to the aspect of the slurry a scale of aggregation was defined as follow: […]
as §1
Phase B was added at a level of 20% of aldehyde in phase A.

[3] = Aggregation of polyurea capsules, Method 5.7; assay type: physicochemical; details: polyurea Method 5.7; phase B at 5% in phase A of Table 1
Experimental: An oil phase was prepared when Desmodur N3300 (Bayer) was added in perfume oil at a level of 6.7%.
An aqueous phase (Solution S1) was prepared when_Mowiol 4-88 (Kururay) was added in water, at a level of 1.1%.
An aqueous phase (Solution S2) was prepared when Hydrosil 1151 (Evonik) was added in water, at a level of 75%.
134 g of oil phase was mixed with 440 g of solution 51, to form an oil-in-water emulsion, in a 1 L vessel equipped with a propeller operating at 1000 rpm.
After 10 min of stirring, 45 g of solution S2 was added.
[…] the slurry was kept at 40° C. for 2 h more before cooling.
The Method 5.7 of Example 5 was applied to encapsulate different perfume oils described as phase A (non aldehyde raw materials) and phase B (aldehyde raw materials).
The composition of Phase A is described in Table 1. Phase B is an aldehyde perfume molecule used as such or as its precursor form added at a level of 5% in Phase A.

[4] = Aggregation of polyurea capsules, Method 5.6; assay type: physicochemical; parameters: key: ∘: no aggregation of the capsules; +: aggregation of few capsules together only visible under microscopy; ++: aggregates of mm size; +++: important aggregation; ++++: aggregation is such that a cake is obtained; details: polyurea Method 5.6, phase A of Table 1; for Encapsulation, No precursor (scale of aggregation): free aldehyde as phase B; for Encapsulation, With precursor (scale of aggregation): precursor (Method 1.1) as phase B
Experimental: An oil phase was prepared when Desmodur VL R20 (Bayer) was added in perfume oil at a level of 2.5%.
An aqueous phase (Solution S1) was prepared when Mowiol 4-88 (Kururay) was added in water, at a level of 0.1%.
An aqueous phase (Solution S2) was prepared when diethylentriamine (Merck) was added in water, at a level of 2%.
100 g of oil phase was mixed with 250 g of solution S1, to form an oil-in-water emulsion, in a 500 mL vessel equipped with a propeller operating at 1000 rpm.
After 10 min of stirring, 50 g of solution S2 was added.
The slurry was stirred for 4 h at room temperature.
The Method 5.6 of Example 5 was applied to encapsulate different perfume oils described as phase A (non aldehyde raw materials) and phase B (aldehyde raw materials).
The composition of Phase A is described in Table 1. Phase B is an aldehyde perfume molecule used as such or as its precursor form prepared according to Method 1.1.
According to the aspect of the slurry a scale of aggregation has been defined as follow: […]
as §1

[5] = Aggregation of polyurea capsules, Method 5.1; assay type: physicochemical
Experimental: An oil phase was prepared by adding Desmodur W (Isocyanate from Bayer) to a perfume oil at a level of 16.6%.
An aqueous phase (solution S1) was prepared by adding Luviskol k90 (BASF) to water, at a level of 4.5%. The pH of the solution was adjusted to 11.5 by addition of NaOH at 10%.
An aqueous phase (Solution S2) was prepared when Lupasol PR8515 (BASF) was added to water, at a level of 10%.
300 g of the oil phase was mixed with 500 g of solution S1, to form an oil-in-water emulsion, in a 1 L reactor equipped with a MIG stirrer operating at 1000 rpm.
After 30 minutes of mixing, 200 g of solution S2 was added over a period of 1 minute.
After 30 minutes, the slurry was heated up to 70° C. (1 H), then kept for 2 H at 70° C., then heated to 80° C. and kept for 1 H at 80° C., then heated to 85° C. and kept for 1 H at 85° C., then cooled to 70° C. and kept for 1 H at 70° C. before final cooling at 25° C.
The Method 5.1 of Example 5 was applied to encapsulate different perfume oils described as phase A (non aldehyde raw materials) and phase B (aldehyde raw materials).
In the following trials, phase A was IPM and phase B was aldehyde perfume molecules. Phase B was added at a level of 5% in phase A.
Phase B contains aldehyde C11 iso or the corresponding precursor prepared according to Method 1.1.
Phase B was added at a level of 5% in phase A.

[6] = Water solubility of the aldehyde
[7] = Aggregation of polyurea capsules, Method 5.4; assay type: physicochemical; details: polyurea Method 5.4; phase B at 4% of aldehyde in phase A
Experimental: An oil phase was prepared when Desmodur W (Bayer) was added in perfume oil at a level of 16.6%.
An aqueous phase (Solution S1) was prepared when Mowiol 40-88 (Kururay) was added in water, at a level of 4.5%.
An aqueous phase (Solution S2) was prepared when Lupasol PR8515 (BASF) was added in water, at a level of 10%.
240 g of oil phase was mixed with 640 g of solution S1, to form an oil-in-water emulsion, in a 1 L reactor equipped with a mig operating at 1000 rpm.
After 30 min, the slurry is heated up to 50° C. and the solution S2 is slowly added (1 H).
The slurry is then heated up to 70° C. and kept for 2 H at 70° C., then heated to 80° C. and kept for 1 H at 80° C., then heated to 85° C. and kept for 1 H at 85° C., then cooled to 70° C. and kept for 1 H at 70° C. before final cooling at 25° C.
The Method 5.4 of Example 5 was applied to encapsulate different perfume oils described as phase A (non aldehyde raw materials) and phase B (aldehyde raw materials).
Phase B is tricyclal or the precursor of tricyclal obtained according to Method 1.1.
Phase B was added at a level of 4% of aldehyde in phase A.

For `CC(C=O)Cc1ccc(C(C)(C)C)cc1` (centres unmarked) [Lilial], the “Encapsulation, No precursor (scale of aggregation)” value (“Encapsulation, No precursor” for short) [1] was “++”, the “Encapsulation, With precursor (scale of aggregation)” value (from here on “Encapsulation, With precursor”) [1] was “∘” and the “Encapsulation, No precursor” value [2] was “∘”. For the same compound, the “Encapsulation, With precursor” value [2] was “∘”, the Slurry aspect [3] was “cake” and the “Encapsulation, No precursor” value [4] was “∘”. The “Encapsulation, With precursor” value [4] was “∘”.
With `CC1=CC(C)C(C=O)CC1` (centres unmarked) [Tricyclal] the “Quality of the capsules examined microscopically” value ([5]; IPM + aldehyde) was “aggregated”, the “Encapsulation (aggregation)” value ([5]; free aldehyde at 5% in IPM) was “Aggregation” and the “Encapsulation, No precursor” value [1] was “++++”. The “Encapsulation, With precursor” value [1] was “∘”, the “Encapsulation, No precursor” value [2] was “++++” and the “Encapsulation, With precursor” value [2] was “∘”. The “Encapsulation, No precursor” value [4] was “+++”, the “Encapsulation, With precursor” value [4] was “∘” and the Water solubility ([6]; Table 2) was 700 ppm. For the same compound, the Water solubility ([6]; Table 3) was 700 ppm, the Water solubility ([6]; Table of Example 11) was 700 ppm and the Water solubility ([6]; Table of Example 13) was 700 ppm. The “Aggregation of the capsules obtained” value [7] was “slightly aggregated”.
